Assay results from patent US12173088B2, “Anti-microbial peptides” (priority 2018, dated 2024).
≈ marks a conversion by molar mass, not a printed value. Where two headings read alike, the source gives them in different places. One block for each compound: values may come before it. Square brackets hold non-standard residues; d marks the D form. Peptide text beside a SMILES is read from it.

Key:
[1] = tested on: S. aureus USA300; assay: microbe, parasite or virus in culture; format: cell-based, Staphylococcus aureus; conditions: read-out: MIC S. aureus USA300 (MRSA)
Outline: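 Broth microdilution: log-phase cultures in tryptic soy broth diluted to OD600 0.001, exposed to two-fold diluted peptides at 37° C overnight, growth read at 630 nm. Medium effects on S. aureus USA300 tested with up to 200 mM NaCl, 2 mM CaCl2, 5-10% human serum, mouse plasma, fluids or tissue homogenate supernatants.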

[2] = tested on: E. faecium V286-17 (VRE); assay: microbe, parasite or virus in culture; format: cell-based, Enterococcus faecium; conditions: read-out: MIC E. faecium V286-17 (VRE)
Source text: (§1) The bacterial strains used include the Gram-positive strains Staphylococcus aureus USA300 LAC, S. epidermidis 1457, and Bacillus subtilis 168, as well as the Gram-negative isolates Escherichia coli K12 and Acinetobacter baumannii B2367-12. Additional, drug resistance strains include Gram-positive Enterococcus faecium V286-17 (VRE) and S. aureus M838-17 (MRSA) and Gram-negative E. coli E423-17, E. coli E416-17 (ampC), and P. aeruginosa E411-17. Bacteria were cultivated in tryptic soy broth (TSB) (BD Bioscience, MD).
(§2) The antibacterial activity of peptides was evaluated using a standard broth microdilution protocol with minor modifications as described (Mishra, et al. (2012) J. Am. Chem. Soc., 134:12426-12429). In brief, logarithmic phase bacterial cultures (i.e., optical density at 600 nm≈0.5) were diluted to OD600 0.001 and partitioned into a 96-well polystyrene microplate at 90 μL per well. After treatment with 10 μL of peptide solutions two fold diluted to various concentrations, microplates were incubated at 37° C. overnight and read on a ChroMate® 4300 Microplate Reader at 630 nm (GMI, Ramsey, MN). […] To study the influence of medium conditions on the antimicrobial activity of peptides against S. aureus USA300, up to 200 mM sodium chloride (NaCl), 2 mM of calcium chloride, 5-10% of human serum, mouse plasma, fluid, or supernatants of tissue homogenates were included into the assays.
(§3) The bacterial strains used include the Gram-positive bacteria methicillin-resistant Staphylococcus aureus USA300, Enterococcus faecium V286-17 (VRE), S. aureus M838-17 (MRSA) and Gram-negative bacteria E. coli E423-17, E416-7 (ampC), P. aeruginosa E411-17, PA01, K. pneumoniae E406-17, ATCC13883, and A. baumannii B26-16. Bacteria were cultivated in tryptic soy broth (TSB) from BD Bioscience.
(§4) The antibacterial activity of peptides was evaluated using a standard broth microdilution protocol with minor modifications (Mishra, et al. (2017) Acta Biomater., 49:316-328). In brief, logarithmic phase bacterial cultures (i.e., optical density at 600 nm≈0.5) were diluted to 0.001 OD and aliquoted 90 μL per well into a 96-well polystyrene microplate. Added 10 μL peptides per well with various concentrations, plates were incubated at 37° C., overnight. Post incubation the plates are read at 630 nm using a ChroMate® Microplate Reader (GMI). […] To study the influence of medium conditions on the antimicrobial activity of peptides against S. aureus USA300 at different pHs (6.8, 7.2, and 8.0), 150 mM sodium chloride (NaCl), 5-10% of human serum, mouse plasma, and peritoneal fluid were included into the assays.

[3] = tested on: P. aeruginosa E411-17; assay: microbe, parasite or virus in culture; format: cell-based, Pseudomonas aeruginosa; conditions: read-out: MIC P. aeruginosa E411-17
Source text: as §1, §2, §3, §4

[4] = tested on: K. pneumoniae E406-17; assay: microbe, parasite or virus in culture; format: cell-based, Klebsiella pneumoniae; conditions: read-out: MIC K. pneumoniae E406-17
Method: as §2, §3, §4

[5] = tested on: E. coli E423-17; assay: microbe, parasite or virus in culture; format: cell-based, Escherichia coli; conditions: read-out: MIC E. coli E423-17
Source text: as §1, §2, §3, §4

[6] = tested on: A. baumannii B26-16; assay: microbe, parasite or virus in culture; format: cell-based, Acinetobacter baumannii; conditions: read-out: MIC A. baumannii B26-16
Method: as §3, §4

[7] = in vivo; conditions: BALB/c, mouse, plasma, iv, 10 mg/kg
Method: The efficacy of the two peptides was also investigated in non-neutropenic mice against S. aureus USA300. A higher bacterial inoculum at 2×10^8 CFU per mouse was used. […] To evaluate the peptide pharmacokinetics (Chhonker, et al. (2018) Biomed. Chromatogr. e4389), the plasma clearance rate of horine after intravenous injection of 10 mg/kg into BALB/c mice was followed.

[8] = tested on: Klebsiella pneumoniae clinical strains; assay: microbe, parasite or virus in culture; conditions: Klebsiella pneumoniae
Method: as §4

Structure (SMILES): CC(C)C[C@@H](NC(=O)[C@@H](Cc1c[nH]c2ccccc12)NC(=O)[C@@H](Cc1c[nH]c2ccccc12)NC(=O)[C@H](N)Cc1c[nH]c2ccccc12)C(=O)N[C@H](CCCNC(=N)N)C(=O)N[C@H](CCCNC(=N)N)C(=O)N[C@H](CCCNC(=N)N)C(=O)N[C@H](Cc1c[nH]c2ccccc12)C(N)=O [D-horine] (H-[dW][dW][dW][dL][dR][dR][dR][dW]-NH2; N-terminus and C-terminus assumed)
MIC ([1]; USA300): 4 µM (≈ 5.37 µg/mL)
MIC ([2]; V286-17 (VRE)): 4 µM (≈ 5.37 µg/mL)
MIC ([3]; E411-17): 32 µM (≈ 43 µg/mL)
MIC ([4]; E406-17): >32 µM
MIC ([5]; E423-17): 16 µM (≈ 21.5 µg/mL)
MIC ([6]; B26-16): >32 µM
level at 5 min [7]: 192 µg/mL
level at 24 h [7]: 0.17 µg/mL

MIC ([1]; Staphylococcus aureus, MRSA / USA300, Table 14): 4 µM (≈ 1.87 µg/mL)
MIC ([2]; Enterococcus faecium, VRE, Table 14): > 8 µM
MIC ([3]; Pseudomonas aeruginosa, E41117, Table 14): 2 µM (≈ 0.935 µg/mL)
MIC ([4]; Klebsiella pneumoniae, E40617, Table 14): > 8 µM
MIC ([5]; Escherichia coli, E42317, Table 14): 8 µM (≈ 3.74 µg/mL)
MIC ([6]; Acinetobacter baumannii, B2616, Table 14): 4 µM (≈ 1.87 µg/mL)
MIC ([8]; strain KP-231-18): 64 µM (≈ 29.9 µg/mL)
MIC ([8]; strain KP-232-18): > 64 µM
MIC ([8]; strain KP-245-18): 4 to 8 µM (≈ 1.87 to 3.74 µg/mL)
MIC ([8]; strain KP-249-18): 8 µM (≈ 3.74 µg/mL)
MIC ([8]; strain KP-253-18): 8 µM (≈ 3.74 µg/mL)
MIC ([8]; strain KP-256-18): > 64 µM
MIC ([8]; strain KP-257-18): > 64 µM
MIC ([8]; strain KP-262-18): 4 µM (≈ 1.87 µg/mL)
MIC ([8]; strain KP-270-18): 16 µM (≈ 7.48 µg/mL)
MIC ([8]; strain KP-B42-15): 8 µM (≈ 3.74 µg/mL)
MIC ([8]; strain KP-B53-15): 4 µM (≈ 1.87 µg/mL)
MIC ([8]; strain KP-B73-15): 4 µM (≈ 1.87 µg/mL)
MIC ([8]; strain KP-B77-15): 4 µM (≈ 1.87 µg/mL)
MIC ([8]; strain KP-B1725-18): 8 µM (≈ 3.74 µg/mL)
Structure (SMILES): NC[C@H]1O[C@H](O[C@H]2[C@H](O)[C@@H](O[C@H]3O[C@H](CO)[C@@H](O)[C@H](N)[C@H]3O)[C@H](N)C[C@@H]2N)[C@H](N)C[C@@H]1O [Tobramycin, reference compound]
